# Assay results published in the supplement of paper PMC11208160.
# Assay: recombinant UMI read abundance after kanamycin selection (control-corrected) (log10(CPM+1)); higher = more efficient recombination; extreme values may be limits of the assay; sequences stand for … in AGTGCAGAGAAAATCGGCCAGTTTTCTCTGCCTGCAGTCCGCATGCCGTGGGACCCCTTGGGTTCTAACCTGTTGCCTAGATTTATGCAGCGGACTGCCTTTCTCCCAAAGTGATAAACCGG…AGGTTGGTTTCACT; site = the 11-nt donor
# Method in brief: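 Counts of recombinant UMIs were reported as log10(CPM+1). Before that, they were converted to CPM, averaged over replicates and scaled using control-derived factors. They came from PCR across the donor–target junction after Escherichia coli carrying the pair library and target plasmid was plated on IPTG (0.07 mM) plus kanamycin, or unselected, in two replicates each.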
# 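Also: IS621 bridge recombinase in Escherichia coli cells against a fixed T5 target plasmid.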
row,Sequence,recombinant UMI read abundance (log10)
1,GGCCCAACATGGACCGGTTTTCCCGGTAATCCGTATTTGTA (site GGGCCAACTTA),0
2,GGCCCAACATGGACCGGTTTTCCCGGTAATCCGTATTTGTA (site GGTCCAACTTA),0.00413
3,GGCCCACCATGGACCGGTTTTCCCGGTAATCCGTATTTGTG (site GGCCCACCTCA),0.0252
4,GGCCCCGCATGGACCGGTTTTCCCGGTAATCCGTATTTGAT (site GGCCCCGCTAT),1.24
5,GGCCCGCCATGGACCGGTTTTCCCGGTAATCCGTATTTGAA (site GGCCCGCCTTT),0
6,GGCCCGTCATGGACCGGTTTTCCCGGTAATCCGTATTTGCA (site GGCCCGTCTTG),1.73
7,GGCCTGGCATGGACCGGTTTTCCCGGTAATCCGTATTTGAG (site GGCCTGGCTCT),0.666
8,GGCGACCCATGGACCGGTTTTCCCGGTAATCCGTATTTGCC (site GGCGACCCTGG),0
9,GGCGTGGCATGGACCGGTTTTCCCGGTAATCCGTATTTGCA (site GGCGTGGCTTG),2.55
10,GGCTACACATGGACCGGTTTTCCCGGTAATCCGTATTTGCA (site GGCTACACTTG),1.86
11,GGCTAGACATGGACCGGTTTTCCCGGTAATCCGTATTTGAC (site GGCTAGACTGT),2.02
12,GGCTCAACATGGACCGGTTTTCCCGGTAATCCGTATTTGCT (site GGCTCAACTAG),0
13,GGCTGCTCATGGACCGGTTTTCCCGGTAATCCGTATTTGTG (site GGCTGCTCTCA),0.427
14,GGCTTCCCATGGACCGGTTTTCCCGGTAATCCGTATTTGTC (site GGCTTCCCTGA),0
15,GGGAAACCATGGACCGGTTTTCCCGGTAATCCGTATTTGGC (site GGGAAACCTGC),0
16,GGGAAGCCATGGACCGGTTTTCCCGGTAATCCGTATTTGGG (site GAGAAGCCTCC),0.00654
17,GGGAAGCCATGGACCGGTTTTCCCGGTAATCCGTATTTGGG (site GCGAAGCCTCC),0
18,GGGAAGCCATGGACCGGTTTTCCCGGTAATCCGTATTTGGG (site GGGAAGCCTCC),0.00361
19,GGGAAGCCATGGACCGGTTTTCCCGGTAATCCGTATTTGGG (site GTGAAGCCTCC),0.0194

row,Sequence,recombinant UMI read abundance (log10)
1,GGGACGTCATGGACCGGTTTTCCCGGTAATCCGTATTTGTT (site GGAACGTCTAA),0.547
2,GGGACGTCATGGACCGGTTTTCCCGGTAATCCGTATTTGTT (site GGCACGTCTAA),0.0541
3,GGGACGTCATGGACCGGTTTTCCCGGTAATCCGTATTTGTT (site GGGACGTCTAA),1.78
4,GGGACGTCATGGACCGGTTTTCCCGGTAATCCGTATTTGTT (site GGTACGTCTAA),0.0147
5,GGGAGGACATGGACCGGTTTTCCCGGTAATCCGTATTTGCC (site GGGAGGACTGG),2.04
6,GGGATAACATGGACCGGTTTTCCCGGTAATCCGTATTTGCC (site GGGATAACTGG),0
7,GGGATGACATGGACCGGTTTTCCCGGTAATCCGTATTTGCT (site GGGATGACTAG),2.32
8,GGGATTGCATGGACCGGTTTTCCCGGTAATCCGTATTTGAC (site GGGATTGCTGT),2.05
9,GGGCAGCCATGGACCGGTTTTCCCGGTAATCCGTATTTGGG (site GGGCAGCCTCC),0.0377
10,GGGCATGCATGGACCGGTTTTCCCGGTAATCCGTATTTGAA (site GGGCATGCTTT),1.59
11,GGGCCAACATGGACCGGTTTTCCCGGTAATCCGTATTTGTA (site GGACCAACTTA),0.317
12,GGGCCAACATGGACCGGTTTTCCCGGTAATCCGTATTTGTA (site GGCCCAACTTA),0.0205
13,GGGCCAACATGGACCGGTTTTCCCGGTAATCCGTATTTGTA (site GGGCCAACTTA),0.645
14,GGGCCAACATGGACCGGTTTTCCCGGTAATCCGTATTTGTA (site GGTCCAACTTA),0.0061
15,GGGCGACCATGGACCGGTTTTCCCGGTAATCCGTATTTGTT (site GGGCGACCTAA),0
16,GGGCGCCCATGGACCGGTTTTCCCGGTAATCCGTATTTGGG (site GGGCGCCCTCC),0.0048
17,GGGCTGGCATGGACCGGTTTTCCCGGTAATCCGTATTTGAC (site GGGCTGGCTGT),0.6
18,GGGGAGCCATGGACCGGTTTTCCCGGTAATCCGTATTTGAA (site GGGGAGCCTTT),0
19,GGGGATACATGGACCGGTTTTCCCGGTAATCCGTATTTGAT (site GGGGATACTAT),1.2

row,Sequence,recombinant UMI read abundance (log10)
1,GGGGCAACATGGACCGGTTTTCCCGGTAATCCGTATTTGCA (site GGGGCAACTTG),1.4
2,GGGGCAACATGGACCGGTTTTCCCGGTAATCCGTATTTGCA (site GGGGCACCTTG),0.00712
3,GGGGCAACATGGACCGGTTTTCCCGGTAATCCGTATTTGCA (site GGGGCAGCTTG),0
4,GGGGCAACATGGACCGGTTTTCCCGGTAATCCGTATTTGCA (site GGGGCATCTTG),0
5,GGGGCACCATGGACCGGTTTTCCCGGTAATCCGTATTTGAA (site GGGGCACCTTA),0.00926
6,GGGGCACCATGGACCGGTTTTCCCGGTAATCCGTATTTGAA (site GGGGCACCTTC),0.018
7,GGGGCACCATGGACCGGTTTTCCCGGTAATCCGTATTTGAA (site GGGGCACCTTG),0
8,GGGGCACCATGGACCGGTTTTCCCGGTAATCCGTATTTGAA (site GGGGCACCTTT),0.0108
9,GGGGCACCATGGACCGGTTTTCCCGGTAATCCGTATTTGCC (site GGGGCACCTAG),0.0374
10,GGGGCACCATGGACCGGTTTTCCCGGTAATCCGTATTTGCC (site GGGGCACCTCG),0.0076
11,GGGGCACCATGGACCGGTTTTCCCGGTAATCCGTATTTGCC (site GGGGCACCTGG),0
12,GGGGCACCATGGACCGGTTTTCCCGGTAATCCGTATTTGCC (site GGGGCACCTTG),0.00491
13,GGGGCCCCATGGACCGGTTTTCCCGGTAATCCGTATTTGCA (site GGGGCACCTTG),0.00505
14,GGGGCCCCATGGACCGGTTTTCCCGGTAATCCGTATTTGCA (site GGGGCCCCTTG),0.411
15,GGGGCCCCATGGACCGGTTTTCCCGGTAATCCGTATTTGCA (site GGGGCGCCTTG),0.0155
16,GGGGCCCCATGGACCGGTTTTCCCGGTAATCCGTATTTGCA (site GGGGCTCCTTG),0.0122
17,GGGGGACCATGGACCGGTTTTCCCGGTAATCCGTATTTGCA (site GGGGAACCTTG),0
18,GGGGGACCATGGACCGGTTTTCCCGGTAATCCGTATTTGCA (site GGGGCACCTTG),0
19,GGGGGACCATGGACCGGTTTTCCCGGTAATCCGTATTTGCA (site GGGGGACCTTG),0
